The source of these data is patent publication US20230071637A1, “ORAL SUSPENSION WITH ANTIULCEROUS AND CHEMOPROTECTIVE EFFECT ON COLON CANCER AND PREPARATION METHOD THEREOF” (CENTRO NACIONAL DE INVESTIGACIONES CIENTIFICAS, priority 2020, published 2023).

Marks after values point to notes of the source that are not given here.

Assay [1] has as its system ethanol-induced gastric ulcer. The experiment in a line: Ethanol-induced gastric ulcer in rats. Type of assay: in vivo, Sprague-Dawley rats. Particulars: 20 mg/kg oral single dose. The text has this: The composition obtained in example 2 (FAMC) was subjected to a preclinical test with animals, in which its antiulcer effect was compared with the antiulcer effects of the registered fatty alcohol tablet (RAT), and suspensions of Fatty Alcohols (FA) and microcrystalline cellulose (MC), the latter two prepared with doses of FA and MC equal to the doses of both substances in the FAMC suspension. The experimental model used in this trial was the induction of gastric ulcers in rats by ethanol. […] After completing the quarantine, the animals were randomly distributed into 11 experimental groups (10 rats/group): a negative control that only received the vehicle and 10 groups in which the ulcer was induced with 60% ethanol, among these a control positive not treated with any antiulcer agent, 8 groups treated with the substances to be evaluated and a group treated with Omeprazole as a reference substance, as shown in Table 2. […] The use of a negative control group (not subjected to damage with ethanol), as well as a positive control group (subjected to damage and without treatment with any substance) made it possible to verify the functioning of the model and compare the anti-ulcer efficacy of the substances evaluated. […]

For assay [2], the system named is gastric ulcer induced by pylorus ligation. The assay can be described thus: Gastric ulcer induced by pylorus ligation in rats. The assay is classed as in vivo, Sprague-Dawley rats. The text has this: The composition obtained in example 2 (FAMC) was subjected to a preclinical test with animals, in which its antiulcer effect was compared with the antiulcer effects of the registered fatty alcohol tablet (RAT), and suspensions of Fatty Alcohols (FA) and microcrystalline cellulose (MC), the latter two prepared with doses of FA and MC equal to the doses of both substances in the FAMC suspension. The experimental model used in this test was that of the induction of gastric ulcers in rats by ligation of the pylorus, which is an acid-dependent model, unlike the model presented in the previous example. […] After completing the quarantine, the animals were randomly distributed into 11 experimental groups (10 rats/group): a negative control that only received the vehicle and 10 groups in which the ulcer was induced by ligation of the pylorus, among these a positive control not treated with any antiulcer agent, 8 groups treated with the substances to be evaluated and a group treated with Omeprazole as a reference substance, as shown in Table 3. The suspensions were administered as they are, while a suspension with 1% acacia gum was prepared to administer the tablet. The use of a negative control group (not subjected to pylorus ligation), as well as that of a positive control (subjected to damage and without treatment with any substance) made it possible to verify the functioning of the model and compare the anti-ulcer efficacy of the substances evaluated. All treatments were administered orally, as a single dose, by intragastric intubation. The selected doses are within the range of effective doses verified in previous preliminary experiences and the dose of omeprazole (20 mg/kg) has also been effective in this model. To induce gastric ulcer, the animals were fasted for 24 hours prior to the experiment, with free access to water. One hour after the administration of single doses of the vehicle, and the different treatments, the animals were anesthetized by intraperitoneal injection with sodium thiopental (35 mg/kg), a 2 cm-long incision was made in the anterior third of the line abdominal media, locating the stomach and ligating the pyloric sphincter with silk suture number 2 and the abdominal wall was sutured with silk thread. One hour later, the rats were sacrificed in a halothane atmosphere, the stomachs were removed and the gastric juice collected in test tubes. The latter was centrifuged at 3000 rpm, the supernatant separated and quantified in ml.

As for `COc1ccc2[nH]c([S+]([O-])Cc3ncc(C)c(OC)c3C)nc2c1` (stereo not drawn) [OMP, Omeprazole], the “Ulcer Index” value in assay [1] (1 h before 60% ethanol, mean ± SEM) is 35.97 ± 14.48*** mm^2; in assay [2] (20 mg/kg oral single dose, 1 h before pylorus ligation, mean ± SEM), 3,9 ± 0,5 *** mm^2. Further, the “I (%) inhibition of ulcer index” value in assay [1] (vs positive control) is 78.8%; in assay [2] (20 mg/kg oral single dose, vs positive control), 83,2%. In assay [2] (20 mg/kg oral single dose, supernatant of gastric juice 1 h after ligation, mean ± SEM), the Gastric juice volume is recorded as 3,4 ± 0,4 ml. Further, the “volume of gastric juice (effect in words)” value in assay [2] (pylorus ligation, doses tested, vs positive control) is reported as “reduced”.
